The target in this test is T1, human recombinant caspase-3 enzyme (Homo sapiens, UniProt P42574).
T1 construct: each cDNA encoding p12 and p17 subunits of caspase-3 was PCR-amplified respectively and subcloned into a pET3-a expression vector; made in house; host or cells: E. coli BL21 (DE3), pET3-a vector
T1 sequence (P42574 29-175 limits assumed): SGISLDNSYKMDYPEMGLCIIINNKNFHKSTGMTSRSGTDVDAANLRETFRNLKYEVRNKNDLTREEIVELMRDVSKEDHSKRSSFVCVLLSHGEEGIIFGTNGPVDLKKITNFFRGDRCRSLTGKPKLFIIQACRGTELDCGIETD
T1 sequence (P42574 176-277 limits assumed): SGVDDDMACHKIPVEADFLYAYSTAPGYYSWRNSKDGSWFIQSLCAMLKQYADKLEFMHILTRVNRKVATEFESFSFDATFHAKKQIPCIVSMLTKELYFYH
In words: Enzyme assay of caspase-3 inhibition (fluorogenic Ac-DEVD-AFC substrate). The format is biochemical. The conditions noted are these: for IC50: caspase-3, Table 1, tested at 2, 20 or 200 uM, read-out: IC50; for inhibitory activity against caspase-3 (in words): compared to the reference compound. The procedure:
The active form of human recombinant caspase-3 enzyme was prepared from Escherichia coli (E.coli) heterologous expression system as described previously (Rotonda J. et al., Nat Struct Biol 3(7): 617–25, 1996). Briefly, each cDNA encoding p12 and p17 subunits of caspase-3 was PCR-amplified respectively and subcloned into a pET3-a expression vector (Novagen), which was followed by transfection into E. coli strain BL21 (DE3). The bacterial cultures (0.5 liters for each transfectant) were grown at 37° C. until logarithmic phase of cell growth and isopropyl-1-thio-β-D-galactopyranoside (IPTC) (Pharmacia) was then added to a final concentration of 0.5 mM. After 3 hr of incubation, the bacteria were pelleted and lysed in a lysis buffer (20 mM Tris hydrochloride pH 8.0, 1 mM EDTA, 2 mM dithiothreitol (DTT), 100 mM NaCl, 200 ug/ml of lysozyme) through sonication. After centrifugation, the pellets from each transfectants were dissolved in 6 M urea and were mixed and rapidly diluted 50 fold in 100 mM HEPES/KOH (pH 7.5), 10% sucrose, 0.1% CHAPS, 0.5 M NaCl, 10 mM DTT. The concentration of protein was determined with the Bradford method (Bio-Rad), with bovine serum albumin as the standard. To verify whether expected size of proteins were obtained, the cell lysates from each cDNA transfectants were analyzed on 14% SDS PAGE and visualized with Coomassie blue staining.
200 ul of the following assay solution was contained in each well of 96-well plate: 20 mM HEPES/KOH (pH 7.5), 10% sucrose, 10 mM DTT, 0.2 mM EDTA, 0.1% CHAPS, 200 ng of enzymes, and 2.5 uM of the substrate. The fluorogenic substrate […]-Asp-Glu-Val-Asp-7-amino-4-trifluoromethylcoumarin (Ac-DEVD-AFC) was purchased from Sigma (St Louis, Mo.) and dissolved in DMSO as a 2.5 mM stock solution and kept at −20° C. before use.
After 1 hr incubation at 37° C., the release of AFC (7-amino-4-trifluoromethyl-coumarin) was monitored in a fluorometric plate reader (Victor 1420). The excitation and emission wavelengths were 400 nm and 510 nm, respectively. The inhibitory effects of compounds on enzyme activities were determined with 2, 20 or 200 uM concentrations of the test compound run in triplicate tubes, and isotherms from three assays were calculated by computerized nonlinear regression analysis (GraphPad Prism Program, San Diego, Calif.) to yield IC50 values.

For orientation: IC50 means the point on the concentration scale where inhibition reaches its midpoint. For orientation: inhibition means the drop in the measured response relative to a control, in per cent. As for `CCOC(=O)c1cnc2c(N)cccc2c1NCc1ccc2c(c1)OCO2` [Example 23, 8-Amino-4-[(benzo[1,3]dioxol-5-ylmethyl)-amino]-quinoline-3-carboxylic acid ethyl ester], the IC50 was determined as 14.3 µM. For the same molecule, the inhibition at 20 µM (caspase-3 activity, at 20 uM) is 86%.
For `CCOC(=O)c1cnc2c(N)cccc2c1NCc1ccccc1Cl` [Example 41, 8-Amino-4-(2-chloro-benzylamino)-quinoline-3-carboxylic acid ethyl ester] the same measures were 17.8 µM and 78.4%.
In the case of `CCOC(=O)c1cnc2c(N)cccc2c1NCc1ccccn1` [Example 20, 8-Amino-4-[(pyridin-2-ylmethyl)-amino]-quinoline-3-carboxylic acid ethyl ester], the IC50 came out at 13.2 µM and the “inhibitory activity against caspase-3 (in words)” value (“inhibitory activity” for short) is reported as “superior activity”. Moreover, where the note is “caspase-3 activity, at 20 uM”, the inhibition at 20 µM amounted to 90.1%.
For the molecule `CCOC(=O)c1cnc2c(N)cccc2c1NCc1cccs1` [Example 21, 8-Amino-4-[(thiophen-2-ylmethyl)-amino]-quinoline-3-carboxylic acid ethyl ester], the concentration for half-maximal inhibition (IC50) is 19.2 µM. In addition, the inhibition at 20 µM (caspase-3 activity, at 20 uM) worked out at 78%.
Consider `CCOC(=O)c1cnc2c(N)cccc2c1NCc1ccccc1OC` [Example 32, 8-Amino-4-(2-methoxy-benzylamino)-quinoline-3-carboxylic acid ethyl ester], for which the IC50 is 16.9 µM. In addition, the inhibition at 20 µM (caspase-3 activity, at 20 uM) was 82.9%.
For `CCCNc1c(C(=O)OCC)cnc2c(N)cccc12` [Example 45, 8-Amino-4-propylamino-quinoline-3-carboxylic acid ethyl ester] the same measures were 16 µM and 85%.
Regarding `CCOC(=O)c1cnc2c(N)cccc2c1NCc1ccc(Cl)cc1` [Example 42, 8-Amino-4-(4-chloro-benzylamino)-quinoline-3-carboxylic acid ethyl ester], the 50% inhibitory concentration (IC50) came to 17 µM. For the same molecule, for the setting “caspase-3 activity, at 20 uM”, the inhibition at 20 µM was 82.9%.
On the same counts, the results for `CCOC(=O)c1cnc2c(N)cccc2c1NCc1cccc(OC)c1` [Example 34, 8-Amino-4-(3-methoxy-benzylamino)-quinoline-3-carboxylic acid ethyl ester] are 16 µM and 83.9%.
`CC(C)OC(=O)c1cnc2c(N)cccc2c1NCc1ccccn1` [Example 61, 8-Amino-4-[(pyridin-2-ylmethyl)-amino]-quinoline-3-carboxylic acid isopropyl ester]: the inhibition at 20 µM (caspase-3 activity, at 20 uM) worked out at 81.4%.
For the molecule `CCOC(=O)c1cnc2c(N)cccc2c1NCCCCc1ccccc1` [Example 40, 8-Amino-4-(4-phenyl-butylamino)-quinoline-3-carboxylic acid ethyl ester], the IC50 came out at 16.4 µM. Moreover, the inhibition at 20 µM (caspase-3 activity, at 20 uM) came to 81.7%.
Consider `CCOC(=O)c1cnc2c(N)cccc2c1NCCOC` [Example 35, 8-Amino-4-(2-methoxy-ethylamino)-quinoline-3-carboxylic acid ethyl ester], for which the half-inhibitory concentration (IC50) amounted to 13.6 µM and the “inhibitory activity” value is listed as “superior activity”. In addition, under “caspase-3 activity, at 20 uM”, the inhibition at 20 µM amounted to 91.5%.
Turning to `CCCOC(=O)c1cnc2c(N)cccc2c1NCc1ccccn1` [Example 60, 8-Amino-4-[(pyridine-2-ylmethyl)-amino]-quinoline-3-carboxylic acid propyl ester], the inhibition at 20 µM (caspase-3 activity, at 20 uM) was found to be 76.8%.
On to `CCOC(=O)c1cnc2c(N)cccc2c1NCCc1ccccc1N` [Example 46, 8-Amino-4-[2-(2-amino-phenyl)-ethylamino]-quinoline-3-carboxylic acid ethyl ester], for which the half-maximal inhibitory concentration (IC50) was found to be 16.2 µM. Besides, the inhibition at 20 µM (caspase-3 activity, at 20 uM) is 83.8%.
On the same counts, the results for `CCOC(=O)c1cnc2c(N)cccc2c1NC(C)C` [Example 28, 8-Amino-4-isopropylamino-quinoline-3-carboxylic acid ethyl ester] are 17.6 µM and 85.2%.
As to `CCOC(=O)c1cnc2c(N)cccc2c1NCCCOC(C)C` [Example 31, 8-Amino-4-(3-isopropoxy-propylamino)-quinoline-3-carboxylic acid ethyl ester], the half-inhibitory concentration (IC50) was found to be 13.5 µM and the “inhibitory activity” value was “superior activity”. Further, the inhibition at 20 µM (caspase-3 activity, at 20 uM) was 92.5%.
Consider `CCOC(=O)c1cnc2c(N)cccc2c1NCc1ccc(OC)cc1` [Example 33, 8-Amino-4-(4-methoxy-benzylamino)-quinoline-3-carboxylic acid ethyl ester], for which the half-maximal inhibitory concentration (IC50) was 15.8 µM. Also, the inhibition at 20 µM (caspase-3 activity, at 20 uM) amounted to 86.5%.
With `CCOC(=O)c1cnc2c(N)cccc2c1NCc1ccc(C)cc1` [Example 37, 8-Amino-4-(4-methyl-benzylamino)-quinoline-3-carboxylic acid ethyl ester], the half-inhibitory concentration (IC50) came out at 15.3 µM. In addition, where the note is “caspase-3 activity, at 20 uM”, the inhibition at 20 µM amounted to 82.1%.
For `CCOC(=O)c1cnc2c(N)cccc2c1NC(CC)COC` (stereo not drawn) [Example 25, 8-Amino-4-(1-methoxymethyl-propylamino)-quinoline-3-carboxylic acid ethyl ester] the same measures were 16.5 µM and 88.8%.
On the same counts, the results for `CCOC(=O)c1cnc2c(N)cccc2c1NCCCc1ccccc1` [Example 39, 8-Amino-4-(3-phenyl-propylamino)-quinoline-3-carboxylic acid ethyl ester] are 16.4 µM and 78.8%.
For the molecule `CCOC(=O)c1cnc2c(N)cccc2c1NCc1ccc(Cl)cc1Cl` [Example 43, 8-Amino-4-(2,4-dichloro-benzylamino)-quinoline-3-carboxylic acid ethyl ester], the half-inhibitory concentration (IC50) came out at 27 µM. Moreover, the inhibition at 20 µM (caspase-3 activity, at 20 uM) was found to be 54.7%.
With `CCOC(=O)c1cnc2c(N)cccc2c1NCc1cccc(OC)c1OC` [Example 44, 8-Amino-4-(2,3-dimethoxy-benzylamino)-quinoline-3-carboxylic acid ethyl ester], the IC50 amounted to 18.1 µM. Moreover, the inhibition at 20 µM (caspase-3 activity, at 20 uM) came to 72.1%.
Regarding `CCOC(=O)c1cnc2c(N)cccc2c1NCc1ccccc1F` [Example 29, 8-Amino-4-(2-fluoro-benzylamino)-quinoline-3-carboxylic acid ethyl ester], the 50% inhibitory concentration (IC50) stood at 18.8 µM. Also, the inhibition at 20 µM (caspase-3 activity, at 20 uM) stood at 78.8%.
For `CCOC(=O)c1cnc2c(N)cccc2c1NC1CCCCC1` [Example 18, 8-Amino-4-cyclohexylamino-quinoline-3-carboxylic acid ethyl ester] the same measures were 14.1 µM and 84.7%.
Consider `CN1C(=O)C(=O)c2cc(S(=O)(=O)N3CCC[C@H]3COc3ccccc3)ccc21` [(S)-1-methyl-5-{1-[2-(phenoxymethyl)pyrrolidinyl]sulfonyl} isatin, reference compound], for which, under “caspase-3 activity, at 20 uM”, the “%-Inhibition” value was determined as 76.8%.
For the molecule `CCOC(=O)c1cnc2c(N)cccc2c1NCc1ccccc1` [Example 17, 8-Amino-4-benzylamino-quinoline-3-carboxylic acid ethyl ester], the half-inhibitory concentration (IC50) stood at 14.4 µM. Besides, under “caspase-3 activity, at 20 uM”, the inhibition at 20 µM worked out at 81.7%.
On the same counts, the results for `CCOC(=O)c1cnc2c(N)cccc2c1NCc1cccc(F)c1` [Example 30, 8-Amino-4-(3-fluoro-benzylamino)-quinoline-3-carboxylic acid ethyl ester] are 19.1 µM and 76.9%.
On the same counts, the results for `CCOC(=O)c1cnc2c(N)cccc2c1NCC(C)C` [Example 27, 8-Amino-4-isobutylamino-quinoline-3-carboxylic acid ethyl ester] are 15.9 µM and 87.8%.

Source of the values: patent US7009053B2, “Quinoline derivatives as caspase-3 inhibitor, preparation for producing the same and pharmaceutical composition comprising the same” (Yungjin Pharmaceuticals Co., Ltd., priority 2002, dated 2006).
